Results: US4067997A, “Synergistic microbecidal composition and method” (priority 1976, dated 1978)
Values after ≈ are worked out from the molar mass of the structure shown. Where a name gives a salt, the structure may show the parent alone. Read-outs that look alike come from different tables or passages of the source.

Assays:
Pneumococci = experiment: MIC, broth dilution (Examples I/II); assay type: cell-based, pneumococcus (63001); settings: Table 8, Pneumococci
Procedure: (§1) In order to establish comparative bactericidal and fungicidal results with homologous fatty acids, a series of experiments was performed with thirty straight-chain fatty acids and derivatives thereof. Eight different gram-negative and twelve different gram-positive organisms, representing a very broad spectrum of organisms, were used in these experiments including the fungus Candida (a yeast). Additionally, fatty acids were chosen to show the effects of saturation versus unsaturation, in the fatty acid claim. Standard solutions of the fatty acids and their derivatives were prepared by first dissolving the weighed compounds in 1 to 2 ml of 95% ethanol and immediately pouring this solution into 200 ml of Tripticase Soy Broth. These lipid compounds which are insoluble in water and broth precipitated into very small crystals or droplets. The tubes containing the suspension were warmed to approximately 70° C and were then placed in an ultrasonic tank for further solubilization of the lipid derivatives.
(§2) Standard solutions (or suspensions) at 1,000 μg/ml were twofold serially diluted with additional broth to a concentration of 125 μg/ml. A 4-ml amount of each dilution was then quickly, and with constant agitation, dispensed into appropriately labeled screw-capped glass tubes (16 by 125 mm). The tubes were sterilized with steam at 15 psi for 15 minutes. After sterilization, all tubes were cooled and incubated overnight at 35° C to insure sterility.
(§3) All compounds were compared on a molar (micromoles/milliliter) rather than on a mass basis. In the following lists of organisms used, those followed by a parenthetical number are registered with the American Type Culture Collection (ATCC); the remainder were isolates from Providence Hospital or Northland Laboratory.
(§4) One drop (0.04 ± 0.01 ml) of an 18-hr broth culture containing 10^7 and 10^9 organisms/ml was added to each dilution of the test compound, as well as to a tube of plain broth which served as the positive control. After inoculation, the contents of each tube were well mixed, and the tubes were incubated at 35° C in a 5% carbon dioxide + […] atmosphere.
(§5) The MIC is defined as the lowest concentration of compound at which no […] evidence of growth was observed when turbidity of the inoculated broth dilutions was compared with control tubes. […] Only a one-tube difference between the bactericidal and bacteriostatic concentrations was normally observed.
(§6) Standard solutions (1000 μg/ml) of three fatty acids and polyglycerol esters thereof were prepared as described in Example I. Also sucrose esters were prepared by transferring the weighed compounds (0.2 gm. dissolved in 1 ml absolute methanol) into 200 ml of sterile Trypticase Soy Broth (TSB). These standard solutions (1000 μg/ml) were twofold serially diluted with additional sterile broth to a concentration of 125 μg/ml. A 3.8 aliquot of each dilution was asceptically delivered into sterile screw-capped culture tubes. All tubes were incubated overnight at 36° C to insure sterility. The microorganisms used in this example were the same as those used in Example I.
(§7) The inoculum, 0.05 ml of an 13-24 hour TSB culture (approximately 10^9 organisms/ml) was asceptically delivered into all dilutions of the compounds, mixed well, and incubated at 36° C. A tube of inoculated broth without the compound served as a positive control and an uninoculated set of dilutions incubated along with the test dilutions, served as a negative control.
(§8) In those cases in which the test compound itself caused turbidity, an aliquot (0.015 ml) of the mixed broth was inoculated onto an agar plate and incubated at 36° C for examination, as described in Example I. The control procedure of Example I was also repeated. The lauric, capric, and oleic acids were used as internal controls and for comparison to Example I. The minimal inhibitory concentrations (μmole/ml) for the compounds studied are given in Tables 7 and 8.

Streptococcus Group A = experiment: MIC, broth dilution (Examples I/II); assay type: cell-based, beta-hemolytic streptococci Group A; settings: Table 8, Strep. Grp. A; for MIC (second value, in parentheses): parentheses not explained
Procedure: as §1, §2, §3, §4, §5, §6, §7, §8

Corynebacteria = experiment: MIC, broth dilution (Examples I/II); assay type: cell-based, Corynebacterium sp. (10700); settings: Table 8, Corynebacteria; for MIC (second value, in parentheses): parentheses not explained
Procedure: as §1, §2, §3, §4, §5, §6, §7, §8

Nocardia asteroides [1] = experiment: MIC, broth dilution (Examples I/II); assay type: cell-based, Nocardia asteroids (3308); settings: Table 8, Nocardia asteroides; for MIC (second value, in parentheses): parentheses not explained
Procedure: as §1, §2, §3, §4, §5, §6, §7, §8

Micrococci = experiment: MIC, broth dilution (Examples I/II); assay type: cell-based, Micrococcus sp.; settings: Table 8, Micrococci
Procedure: as §1, §2, §3, §4, §5, §6, §7, §8

S. epidermidis = experiment: MIC, broth dilution (Examples I/II); assay type: cell-based; settings: for MIC: Table 8, Staph. epider., > = no inhibition, max. tested
Procedure: as §1, §2, §3, §4, §5, §6, §7, §8

Sarcina = experiment: MIC, broth dilution (Examples I/II); assay type: cell-based, Sarcina lutea (9431); settings: for MIC: Table 8, Sarcina, > = no inhibition, max. tested
Procedure: as §1, §2, §3, §4, §5, §6, §7, §8

Candida albicans = experiment: MIC on mass basis (Example V procedure); assay type: cell-based; settings: Candida albicans
Procedure: (§9) The essential procedure of Example I was followed with a series of phenolic compounds, with the exception that the test method was conducted on a mass (μg/ml) basis rather than a molecular (mol/ml) basis of the foregoing tests, since the long established phenol-coeffecient test is on a mass rather than molecular basis. Additionally, a different but closely related group of organisms were used in this test, in order to give a complete representative span on gram-negative, gram-positive and fungus organisms. Additionally, the phenolic derivatives chosen for test purposes include a number of derivatives which are presently accepted by the FDA as food-grade phenolic microbicides.
(§10) The same procedure of Example V was repeated but with combinations of mono-laurin (GML).
(§11) The procedure of Example V was repeated with combinations of glycerol mono-laurin (GML) and ethylenediamine tetraacetic acid (EDTA) as the calcium salt and in combination with BHA.

Escherichia coli = experiment: MIC on mass basis (Example V procedure); assay type: cell-based; settings: Escherichia coli
Procedure: as §9, §10, §11

Nocardia asteroides [2] = experiment: MIC on mass basis (Example V procedure); assay type: cell-based
Procedure: as §9, §10, §11

Pseudomonas aeruginosa = experiment: MIC on mass basis (Example V procedure); assay type: cell-based; settings: Pseudomonas aeruginosa
Procedure: as §9, §10, §11

Saccharomyces cerevisiae = experiment: MIC on mass basis (Example V procedure); assay type: cell-based; settings: Saccharomyces cerevisiae
Procedure: as §9, §10, §11

Staphylococcus aureus = experiment: MIC on mass basis (Example V procedure); assay type: cell-based; settings: Staphylococcus aureus
Procedure: as §9, §10, §11

Streptococcus agalactiae = experiment: MIC on mass basis (Example V procedure); assay type: cell-based; settings: Streptococcus agalactiae
Procedure: as §9, §10, §11

Streptococcus mutans = experiment: MIC on mass basis (Example V procedure); assay type: cell-based, Streptococcus mutans (ATCC 10441); settings: Streptococcus mutans
Procedure: as §9, §10, §11

Corynebacterium sp. = experiment: MIC on mass basis (Example V procedure); assay type: cell-based; settings: Table 11, Corynebacterium sp.; read-out: MIC
Procedure: as §9

Q: Which MIC (Pneumococci) does the source give for Sucrose laurate here?
A: 120 µM

Q: And the MIC (Streptococcus Group A)?
A: 30 µM

Q: And the “MIC (second value, in parentheses)” value (Streptococcus Group A)?
A: 120 µM

Q: What about the MIC (Corynebacteria) of the same compound?
A: 470 µM

Q: And the “MIC (second value, in parentheses)” value (Corynebacteria)?
A: 230 µM

Q: And the MIC (Nocardia asteroides [1])?
A: 470 µM

Q: And the “MIC (second value, in parentheses)” value (Nocardia asteroides [1])?
A: 1900 µM

Q: And the MIC (Micrococci)?
A: 1900 µM

Q: What about the MIC (S. epidermidis) of the same compound?
A: > 1900 µM

Q: What about the MIC (Sarcina) of the same compound?
A: > 1900 µM

Q: Which MIC (Pneumococci) does the source give for Sucrose palmitate here?
A: 50 µM

Q: And the MIC (Streptococcus Group A)?
A: 100 µM

Q: What about the “MIC (second value, in parentheses)” value (Streptococcus Group A) of the same compound?
A: 200 µM

Q: What about the MIC (Corynebacteria) of the same compound?
A: 430 µM

Q: What about the “MIC (second value, in parentheses)” value (Corynebacteria) of the same compound?
A: 260 µM

Q: And the MIC (Nocardia asteroides [1])?
A: 430 µM

Q: What about the “MIC (second value, in parentheses)” value (Nocardia asteroides [1]) of the same compound?
A: > 1720 µM

Q: What about the MIC (Micrococci) of the same compound?
A: 260 µM

Q: What about the Inhibition in words (S. epidermidis; S. epidermis) of the same compound?
A: only ester which inhibits S. epidermis

Q: What about the MIC (S. epidermidis) of the same compound?
A: 860 µM

Q: And the Inhibition in words (Sarcina; Sarcina)?
A: only ester which inhibits S. epidermis and Sarcina

Q: And the MIC (Sarcina)?
A: 430 µM

Q: With Sucrose caprate as the compound, how does the MIC (Pneumococci) read?
A: 60 µM

Q: And the MIC (Streptococcus Group A)?
A: 60 µM

Q: And the MIC (Corynebacteria)?
A: 250 µM

Q: And the MIC (Nocardia asteroides [1])?
A: 250 µM

Q: And the MIC (Micrococci)?
A: 1000 µM

Q: And the MIC (S. epidermidis)?
A: > 2000 µM

Q: And the MIC (Sarcina)?
A: > 2000 µM

Q: How did the MIC (Candida albicans; Table 11, Candida albicans, read-out: MIC) turn out when CC(C)(C)c1cc(C(C)(C)C)c(O)c(C(=O)O)c1O [3,5-di-tert-butyl-2,6-dihydroxbenzoic] was run?
A: 500 µg/mL

Q: And the MIC (Escherichia coli; Table 11, Escherichia coli, read-out: MIC)?
A: > 1000 µg/mL

Q: And the MIC (Nocardia asteroides [2]; Table 11, Nocardia asteroides, read-out: MIC)?
A: 15.6 µg/mL

Q: And the MIC (Pseudomonas aeruginosa; Table 11, Pseudomonas aeruginosa, read-out: MIC)?
A: > 1000 µg/mL

Q: And the MIC (Saccharomyces cerevisiae)?
A: 500 µg/mL

Q: And the MIC (Staphylococcus aureus; Table 11, Staphylococcus aureus, read-out: MIC)?
A: 31.2 µg/mL

Q: And the MIC (Streptococcus agalactiae; Table 11, Strepococcus agalactiae, read-out: MIC)?
A: 15.6 µg/mL

Q: And the MIC (Streptococcus mutans; Table 11, Strepococcus mutans, read-out: MIC)?
A: 31.2 µg/mL

Q: What about the MIC (Corynebacterium sp.) of the same compound?
A: 15.6 µg/mL (≈ 58.6 µM)

Q: What does the source list for O=C(O)CN(CCN(CC(=O)O)CC(=O)O)CC(=O)O [EDTA (N2 Ca salt), ethylenediamine tetraacetic acid]?
A: MIC (Candida albicans): > 1000 µg/mL; MIC (Escherichia coli; Table 14, Escherichia coli): < 1000 µg/mL; MIC (Nocardia asteroides [2]; Nocardia asteroides): 1000 µg/mL; MIC (Pseudomonas aeruginosa): > 1000 µg/mL; MIC (Saccharomyces cerevisiae; Table 14, Saccharomyces cerevisiae, read-out: MIC): > 1000 µg/mL; MIC (Staphylococcus aureus): > 1000 µg/mL; MIC (Streptococcus agalactiae): > 1000 µg/mL; MIC (Streptococcus mutans): 500 µg/mL

Q: Which MIC (Pneumococci) does the source give for Sucrose oleate here?
A: 50 µM

Q: And the MIC (Streptococcus Group A)?
A: > 1640 µM

Q: And the “MIC (second value, in parentheses)” value (Streptococcus Group A)?
A: 410 µM

Q: And the MIC (Corynebacteria)?
A: > 1640 µM

Q: What about the “MIC (second value, in parentheses)” value (Corynebacteria) of the same compound?
A: > 1640 µM

Q: And the MIC (Nocardia asteroides [1])?
A: 410 µM

Q: And the “MIC (second value, in parentheses)” value (Nocardia asteroides [1])?
A: 210 µM

Q: What about the MIC (Micrococci) of the same compound?
A: 210 µM

Q: And the MIC (S. epidermidis)?
A: > 1640 µM

Q: And the MIC (Sarcina)?
A: > 1640 µM

Q: Which results are given for Sucrose linoleate?
A: MIC (Pneumococci): 50 µM; MIC (Streptococcus Group A): 410 µM; MIC (second value, in parentheses) (Streptococcus Group A): 820 µM; MIC (Corynebacteria): > 1660 µM; MIC (second value, in parentheses) (Corynebacteria): 1660 µM; MIC (Nocardia asteroides [1]): 410 µM; MIC (second value, in parentheses) (Nocardia asteroides [1]): 1660 µM; MIC (Micrococci): 820 µM; MIC (S. epidermidis): > 1660 µM; MIC (Sarcina): > 1660 µM
